What all share (assay type): functional
Experiment [1] concerns Enterococcus faecalis. The experiment is described as follows: Antibacterial activity against vancomycin-sensitive Enterococcus faecalis ATCC 29212 after 18 hrs by CLSI broth microdilution method. Particulars: ATCC 29212, 18 h. (In general: Dilution methods test growth across graded concentrations, often in twofold steps.)
The subject of experiment [2] is Enterococcus faecalis. The experiment is described as follows: Antibacterial activity against vancomycin-resistant Enterococcus faecalis 09-9 after 18 hrs by CLSI broth microdilution method. Particulars: 09-9, 18 h.
The next experiment deals with Enterococcus faecium. As to the kind of experiment: Antibacterial activity against vancomycin-sensitive Enterococcus faecium 12-3 after 18 hrs by CLSI broth microdilution method. The following applies: 12-3, 18 h.
The test system of another experiment is Pseudomonas aeruginosa. The experiment is described as follows: Antibacterial activity against Pseudomonas aeruginosa ATCC 27853 after 18 hrs by CLSI broth microdilution method. The following applies: ATCC 27853, 18 h.
The next experiment has as its system Proteus mirabilis. As to the kind of experiment: Antibacterial activity against Proteus mirabilis 12-6 after 18 hrs by CLSI broth microdilution method. Particulars: 12-6, 18 h.
The subject of experiment [3] is Acinetobacter calcoaceticus. As to the kind of experiment: Antibacterial activity against carbapenem-resistant Acinetobacter calcoaceticus 12-6 after 18 hrs by CLSI broth microdilution method. The following applies: 12-6, 18 h.
Experiment [4] concerns Staphylococcus epidermidis. As to the kind of experiment: Antibacterial activity against methicillin-sensitive Staphylococcus epidermidis 12-6 after 18 hrs by CLSI broth microdilution method. Particulars: 12-6, 18 h.
A further experiment concerns Escherichia coli. As to the kind of experiment: Antibacterial activity against extended-spectrum beta-lactamase deficient Escherichia coli 12-14 after 18 hrs by CLSI broth microdilution method. The following applies: 12-14, 18 h.
A further experiment relates to Proteus vulgaris. As to the kind of experiment: Antibacterial activity against Proteus vulgaris ATCC 29905 after 18 hrs by CLSI broth microdilution method. Particulars: ATCC 29905, 18 h.
In experiment [5] the test system is Stenotrophomonas maltophilia. As to the kind of experiment: Antibacterial activity against Stenotrophomonas maltophilia ATCC 13636 after 18 hrs by CLSI broth microdilution method. Particulars: ATCC 13636, 18 h.
A further experiment has as its system Citrobacter freundii. As to the kind of experiment: Antibacterial activity against Citrobacter freundii ATCC 43864 after 18 hrs by CLSI broth microdilution method. The following applies: ATCC 43864, 18 h.
The subject of experiment [6] is Staphylococcus aureus. The experiment is described as follows: Antibacterial activity against methicillin-resistant Staphylococcus aureus ATCC 33591 infected in ICR mouse assessed as mouse survival at 2.5 mg/kg, iv administered at 1 and 5 hrs post infection and measured on day 7 day post last dose (reference value: 0%). The following applies: ATCC 33591, iv.
The subject of experiment [7] is Staphylococcus aureus. As to the kind of experiment: Antibacterial activity against methicillin-resistant Staphylococcus aureus ATCC 33591 infected in ICR mouse assessed as mouse survival at 3 mg/kg, iv administered at 1 and 5 hrs post infection and measured on day 7 day post last dose (reference value: 0%). The following applies: ATCC 33591, iv.
Experiment [8] relates to Staphylococcus aureus. The experiment is described as follows: Antibacterial activity against methicillin-resistant Staphylococcus aureus ATCC 33591 infected in ICR mouse assessed as mouse survival at 3.5 mg/kg, iv administered at 1 and 5 hrs post infection and measured on day 7 day post last dose (reference value: 0%). Particulars: ATCC 33591, iv.

≈ marks a conversion by molar mass, not a printed value.

Broadly, the MIC is the least concentration at which growth counts as inhibited.

For the compound `CN(C)C(=N)c1ccc2cc(-c3ccc(-c4cc5ccc(C(=N)N(C)C)cc5[nH]4)cc3)[nH]c2c1`, the minimum inhibitory concentration (MIC) against Enterococcus faecalis [1] was 1 µg/mL (≈ 2.23 µM); with Enterococcus faecalis [2], 1 µg/mL (≈ 2.23 µM); against Enterococcus faecium, 1 µg/mL (≈ 2.23 µM); in the experiment with Pseudomonas aeruginosa it was 4 µg/mL (≈ 8.92 µM); with Proteus mirabilis, 8 µg/mL (≈ 17.8 µM); in [3], 8 µg/mL (≈ 17.8 µM). Moreover, the MIC in experiment [4] was 0.125 µg/mL (≈ 0.279 µM); in the experiment on Escherichia coli it was 1 µg/mL (≈ 2.23 µM); against Proteus vulgaris it was 4 µg/mL (≈ 8.92 µM); in [5] it was 8 µg/mL (≈ 17.8 µM); with Citrobacter freundii, 2 µg/mL (≈ 4.46 µM). Further, the survival at 2.5 mg/kg in the experiment on Staphylococcus aureus [6] stood at 50%. Moreover, the survival at 3 mg/kg with Staphylococcus aureus [7] was found to be 60%. The survival at 3.5 mg/kg in the experiment with Staphylococcus aureus [8] is 80%.

(Values after ChEMBL document CHEMBL4229379, “Synthesis and structure-activity relationship of novel bisindole amidines active against MDR Gram-positive and Gram-negative bacteria” (Eur J Med Chem, 2018).)
